Results from paper PMC4014597 (PLoS ONE, 2014).

Key:
U-937 cells = test: Cell viability by trypan blue exclusion, U-937; assay type: cell-based, human; settings: U-937, 48 h; for IC50: Homo sapiens, read-out: IC50 (mean ± SD) cell viability U-937
Procedure: U-937 and RAJI cell lines were purchased from Deutsche Sammlung für Mikroorganismen und Zellkulturen (DSZM). Cells were maintained in RPMI 1640 (Lonza) supplemented with 10% fetal calf serum (Lonza) and 1% antibiotic–antimycotic (Lonza). Cells were treated with compounds at the indicated concentrations in exponential growth phase. Proliferation and viability were assessed by trypan blue exclusion analysis at the indicated time points.

Human G9a = biological target: T1, Human G9a (Homo sapiens, UniProt Q96KQ7); test: G9a assay (3H-AdoMet filter-binding); assay type: biochemical; settings: for IC50: 10-dose IC50 mode, 2-fold serial dilution starting at 400 µM
T1 sequence (Q96KQ7 786-1210 limits assumed): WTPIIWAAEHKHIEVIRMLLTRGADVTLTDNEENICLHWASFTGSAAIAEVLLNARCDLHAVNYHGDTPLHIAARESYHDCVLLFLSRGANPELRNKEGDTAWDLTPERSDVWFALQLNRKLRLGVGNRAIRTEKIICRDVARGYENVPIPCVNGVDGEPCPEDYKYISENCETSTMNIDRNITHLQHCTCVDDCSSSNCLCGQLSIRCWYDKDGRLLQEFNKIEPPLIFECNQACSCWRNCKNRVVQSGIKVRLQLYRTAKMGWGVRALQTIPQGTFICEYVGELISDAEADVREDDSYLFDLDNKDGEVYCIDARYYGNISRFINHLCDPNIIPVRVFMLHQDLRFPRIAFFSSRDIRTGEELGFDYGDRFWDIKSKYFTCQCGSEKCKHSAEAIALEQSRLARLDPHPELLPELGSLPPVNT
Procedure: The reaction buffer was 50 mM Tris-HCl, pH 8.5, 50 mM NaCl, 5 mM MgCl2, 1 mM dithiothreitol (DTT), 1 mM PMSF, and 1% DMSO. Standard substrate concentrations were 5 µM biotinylated H3 (1–21) peptide (AnaSpec) substrate and 0.1 mM AdoMet. For control compound IC50 determinations, the test compounds were diluted in DMSO and then added to the enzyme/substrate mixture in nanoliter amounts by using an acoustic technology (Echo 500; Lab-cyte). The reaction was initiated by the addition of ^3H-AdoMet, and incubated at 30°C for 1 h. The reaction was detected by a filter-binding method. Data analysis was performed using Graph Pad Prism software for curve fits, and GraFit (Erithacus) for global fit of kinetic studies.

[1] = biological target: T2, human G9a-like protein (GLP) (Homo sapiens, UniProt Q9H9B1); test: GLP assay (histone methylation inhibition); assay type: biochemical; settings: 8 μM inhibitor; read-out: Percent of GLP inhibition
T2 construct: catalytic SET domain (residues 734-1235; pXC758) were purified as described; made in house
T2 sequence (Q9H9B1 765-1266): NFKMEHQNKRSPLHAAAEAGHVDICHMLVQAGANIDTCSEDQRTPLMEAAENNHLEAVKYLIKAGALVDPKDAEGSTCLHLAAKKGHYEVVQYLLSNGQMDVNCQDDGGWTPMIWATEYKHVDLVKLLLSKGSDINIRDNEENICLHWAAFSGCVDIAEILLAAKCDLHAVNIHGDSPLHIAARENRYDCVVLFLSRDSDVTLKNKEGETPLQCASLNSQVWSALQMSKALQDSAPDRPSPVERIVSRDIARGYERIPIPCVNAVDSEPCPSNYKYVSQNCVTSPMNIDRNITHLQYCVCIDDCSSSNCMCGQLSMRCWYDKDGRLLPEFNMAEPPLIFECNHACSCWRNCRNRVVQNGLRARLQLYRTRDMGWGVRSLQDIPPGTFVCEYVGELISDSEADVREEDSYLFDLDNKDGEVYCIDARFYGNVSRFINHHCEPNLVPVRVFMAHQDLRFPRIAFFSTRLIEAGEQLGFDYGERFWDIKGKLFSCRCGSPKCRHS
Procedure: GLP Assay. Recombinant human G9a-like protein (GLP) C-terminal fragment containing both the ankyrin repeats and catalytic SET domain (residues 734-1235; pXC758) were purified as described. For histone methylation inhibition, the assay was performed in 20 μL reaction containing 4.6 mM [methyl-^3H]-AdoMet, 50 μg/mL histone from calf thymus (SIGMA), 10 μg/mL (0.17 μM) GLP, 100 mM KCl, 5 mM (DTT) and 50 mM Tris-HCl pH 8.5. GLP was pre-incubated with AdoMet and 8 µM inhibitors for 5 min at 30 °C before the addition of the histone substrate. After incubation (5 min), the reaction was terminated by the addition of 20% trichloroacetic acid (TCA, Fisher Scientific). The reaction mixture was spotted on GF/A paper circles (Whatman), washed three times with 3 mL of 10% TCA and once with 3 mL of ethanol. The dried circles were subjected to liquid-scintillation counting with Cytoscint scintillant.

[2] = system: C-terminal catalytic domain of human DNMT3A (hDNMT3A); test: DNMT3A assay (restriction-based fluorescence assay); assay type: biochemical; settings: for selectivity for DNMT3A over G9a inhibition: G9a IC50 vs DNMT3A EC50
Source text: (§1) DNMT3A enzyme inhibition was adapted from the restriction-based fluorescence assay protocol described in Ceccaldi et al.. Briefly, a 5'-labelled biotin oligonucleotide is hybridized to its complementary strand labelled with 6-carboxyfluorescein at the 3′-end into a 384 well microplate (black Optiplates; Perkin Elmer) pre-coated with avidin. The duplex contains a unique CpG site overlapping with a restriction site of a methylation sensitive restriction enzyme. The C-terminal catalytic domain of human DNMT3A (residues 623–908), produced as described, was added in each well (200 ng/well) and mixed with the chemical compounds at desired concentrations and freshly prepared AdoMet (20 µM final concentration) to start the reaction in a total volume of 50 µL. After 1 hour incubation at 37°C each well were washed three times with PBS, 0.05% Tween-20, 500 mM NaCl and three more times with PBST. Specific fluorescent signals were detected with the methylation-sensitive restriction enzyme HpyCH4IV (NEB) as described and measured on a Perkin Elmer Envision detector. The percentage of inhibition is reported. The formula used to calculate the percentage of inhibition is [(X-Y)/X]×100, where X is the signal determined in the absence of the inhibitor and Y is the signal obtained in the presence of the inhibitor. […] The non-linear regression fittings with sigmoidal dose-response (variable slope) were performed with GraphPad Prism 4.03 (GraphPad Software).

[3] = biological target: T3, C-terminal catalytic domain of human DNMT3A (hDNMT3A) (Homo sapiens, UniProt Q9Y6K1); test: as above; assay type: biochemical; settings: for inhibition at 3.2 µM: 3.2 µM compound; for inhibition at 3.2 µM / inhibition at 10 µM / inhibition at 32 µM / inhibition at 100 µM: read-out: % inhibition ± SD hDNMT3A; for inhibition at 10 µM: 10 µM compound; for inhibition at 32 µM: 32 µM compound; for inhibition at 100 µM: 100 µM compound; for EC50: catalytic domain of hDNMT3A, means of at least three experiments
T3 construct: catalytic domain of human DNMT3A (residues 623–908), produced as described; made in house
Source text: as §1

T3 sequence (Q9Y6K1 627-912): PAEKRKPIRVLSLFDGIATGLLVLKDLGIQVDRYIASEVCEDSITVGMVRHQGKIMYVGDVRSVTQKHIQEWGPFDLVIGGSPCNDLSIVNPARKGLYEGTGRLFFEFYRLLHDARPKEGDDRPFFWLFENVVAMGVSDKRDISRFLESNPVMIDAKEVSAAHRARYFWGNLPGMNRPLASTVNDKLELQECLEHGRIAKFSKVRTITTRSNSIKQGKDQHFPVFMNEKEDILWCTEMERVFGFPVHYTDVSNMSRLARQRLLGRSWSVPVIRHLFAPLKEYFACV

Row | Structure (SMILES) | IC50 (U-937 cells) | inhibition at 0.78 µM (Human G9a) | inhibition at 1.56 µM (Human G9a) | inhibition at 3.1 µM (Human G9a) | inhibition at 6.2 µM (Human G9a) | inhibition at 12.5 µM (Human G9a) | inhibition at 25 µM (Human G9a) | inhibition at 50 µM (Human G9a) | inhibition at 100 µM (Human G9a) | inhibition at 200 µM (Human G9a) | inhibition at 400 µM (Human G9a) | IC50 (Human G9a) | inhibition at 8 µM [1] | selectivity for DNMT3A over G9a inhibition [2] | inhibition at 3.2 µM [3] | inhibition at 10 µM [3] | inhibition at 32 µM [3] | inhibition at 100 µM [3] | EC50 [3] | also measured
1 | c1ccc(CN2CCC(Nc3nc(N4CCN(c5ccccc5)CC4)nc4ccccc34)CC2)cc1 [Compound 14, N-(1-benzylpiperidin-4-yl)-2-(4-phenylpiperazin-1-yl)quinazolin-4-amine] | 4.4 ± 1.4 µM | 17.3% | 13.5% | 0% | 4.2% | 21.3% | 10.6% | 16.5% | 22.4% | 23.8% | 24% | > 400 µM | 10% | > 40 fold | 13 ± 2% | 40 ± 4% | 54 ± 3% | 63 ± 4% | 9 ± 2 µM | antiproliferative potency compared to SGI-1027, fold less efficient (U-937 cells): 2.6 fold
2 | CN1CCCN(c2nc(NC3CCN(Cc4ccccc4)CC3)c3ccccc3n2)CC1 [Compound 4] | 16.6 ± 3.8 µM | 0% | 0% | 1.9% | 0% |  | 0% | 7.9% | 21.8% | 16.4% | 23.5% | > 400 µM | 0% | > 40 fold | 16 ± 4% | 39 ± 2% | 55 ± 3% | 67 ± 3% | 10 ± 2.5 µM | 
3 | c1ccc(CN2CCC(Nc3nc(N4CCN(c5ccccn5)CC4)nc4ccccc34)CC2)cc1 [Compound 13] | 18.8 ± 1.2 µM | 9.4% | 21.6% | 11% | 16.7% | 0% | 11.1% | 27.2% | 24.9% | 29.2% | 14% | > 400 µM | 3.3% | > 40 fold | 8 ± 1% | 19 ± 13% | 52 ± 5% | 62 ± 3% | 12 ± 4 µM | 
4 | c1ccc(CN2CCC(Nc3nc(N4CCCC4)nc4ccccc34)CC2)cc1 [Compound 10, N-(1-benzylpiperidin-4-yl)-2-(pyrrolidin-1-yl)quinazolin-4-amine] | 14.7 ± 3.8 µM | 0.3% | 13.4% | 14.7% | 4.6% | 5.9% | 13% | 18.6% | 20.8% | 49.5% | 37.8% | > 400 µM | 9.2% | 18 fold | 8 ± 4% | 21 ± 8% | 43 ± 6% | 70 ± 4% | 35 ± 12 µM | selectivity for DNMT3A over DNMT1 ([2]; ratio of EC50 values): 4 fold
